Measured values as given in patent US6376670B1, “Quinoline-indole antimicrobial agents, uses and compositions related thereto” (Sepracor Inc., priority 1997, dated 2002).

Experiments:
Test in all cases: Determination of MIC values (BHI broth, 96 well microtiter plate)
Assay type in all cases: cell-based
[1] = system: methicillin-resistant Staphylococcus aureus (MRSA); conditions: MRSA, BHI broth, overnight 37° C.; for MIC: Staphylococcus aureus, read-out: MIC MRSA
Summary of the method: (§1)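 Here, each test series spans final concentrations of 25 to 0.39 µg/mL in BHI broth, with DMSO as diluent. Plates seeded at 10^5–10^6 cells/mL are kept at 37° C and approx. 7-10% CO2 for about 16 hours before growth is scored.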

[2] = system: vancomycin-resistant Enterococcus spp. (VRE); conditions: VREF, BHI broth, overnight 37° C.; for MIC: Enterococcus, VRE, read-out: MIC VREF
Summary of the method: as §1

[3] = system: Streptococcus pneumoniae; conditions: S. pneu, BHI broth, overnight 37° C.; for MIC: Streptococcus pneumoniae, read-out: MIC S. pneu
Summary of the method: as §1

NCc1ccc(CNC(=O)c2cc(-c3c[nH]c4ccc(Br)cc34)nc3c(C#CCN4CCCCC4)cccc23)cc1 [Example 263]
MIC [1]: < 25 µg/mL | MIC [2]: < 25 µg/mL | MIC [3]: < 7 µg/mL

COc1ccc(NC(=O)CCc2cc(-c3c[nH]c4ccc(Br)cc34)nc3ccc(C#CCN4CCCCC4)cc23)cc1 [Example 266]
MIC [1]: < 7 µg/mL | MIC [2]: > 25 µg/mL | MIC [3]: < 7 µg/mL

NCc1ccc(CNC(=O)c2cc(-c3c[nH]c4ccc(Br)cc34)nc3cc(C#CCN4CCSCC4)ccc23)cc1 [Example 270]
MIC [1]: < 25 µg/mL | MIC [2]: < 25 µg/mL | MIC [3]: > 25 µg/mL

NCc1ccc(CNC(=O)c2cc(-c3c[nH]c4ccc(Br)cc34)nc3c(C#CCN4CCSCC4)cccc23)cc1 [Example 271]
MIC [1]: < 7 µg/mL | MIC [2]: < 25 µg/mL | MIC [3]: < 7 µg/mL

NCc1ccc(CNC(=O)c2cc(-c3c[nH]c4ccc(Br)cc34)nc3cc(Cl)c(C#CCN4CCSCC4)cc23)cc1 [Example 272]
MIC [1]: < 7 µg/mL | MIC [2]: < 7 µg/mL | MIC [3]: < 7 µg/mL

NCc1ccc(CNC(=O)c2cc(-c3c[nH]c4ccc(Br)cc34)nc3cc(Cl)c(C#CCNCCc4ccc(Cl)cc4)cc23)cc1 [Example 274]
MIC [1]: < 25 µg/mL | MIC [2]: > 25 µg/mL | MIC [3]: < 7 µg/mL

NCc1ccc(CNC(=O)c2cc(-c3c[nH]c4ccc(Br)cc34)nc3c(Cl)c(Cl)ccc23)cc1 [Example 275]
MIC [1]: < 7 µg/mL | MIC [2]: < 7 µg/mL | MIC [3]: < 25 µg/mL

NCc1cccc(CNC(=O)c2cc(-c3c[nH]c4ccc(Br)cc34)nc3c(Cl)c(Cl)ccc23)c1 [Example 276]
MIC [1]: < 7 µg/mL | MIC [2]: < 7 µg/mL | MIC [3]: > 25 µg/mL

NCC1CCC(CNC(=O)c2cc(-c3c[nH]c4ccc(Br)cc34)nc3c(Cl)c(Cl)ccc23)CC1 (stereo not drawn) [Example 277]
MIC [1]: < 7 µg/mL | MIC [2]: < 7 µg/mL | MIC [3]: < 7 µg/mL

NCC1CCCC(CNC(=O)c2cc(-c3c[nH]c4ccc(Br)cc34)nc3c(Cl)c(Cl)ccc23)C1 (stereo not drawn) [Example 278]
MIC [1]: < 7 µg/mL | MIC [2]: < 7 µg/mL | MIC [3]: < 7 µg/mL

NCCNC(=O)c1cc(-c2c[nH]c3ccc(Br)cc23)nc2c(Cl)c(Cl)ccc12 [Example 279]
MIC [1]: < 7 µg/mL | MIC [2]: < 7 µg/mL | MIC [3]: < 7 µg/mL

NC1CCCCC1NC(=O)c1cc(-c2c[nH]c3ccc(Br)cc23)nc2c(Cl)c(Cl)ccc12 (stereo not drawn) [Example 280]
MIC [1]: < 7 µg/mL | MIC [2]: < 7 µg/mL | MIC [3]: < 7 µg/mL

NCc1ccc(CNC(=O)c2cc(-c3c[nH]c4ccc(Br)cc34)nc3cc(Cl)c(C#CCN4CCc5ccccc5C4)cc23)cc1 [Example 281]
MIC [1]: < 25 µg/mL | MIC [2]: > 25 µg/mL | MIC [3]: > 25 µg/mL

NCc1ccc(CNC(=O)c2cc(-c3c[nH]c4ccc(Br)cc34)nc3cc(Cl)c(C#CCN4CC=CCC4)cc23)cc1 [Example 282]
MIC [1]: < 7 µg/mL | MIC [2]: < 7 µg/mL | MIC [3]: < 7 µg/mL

NCc1ccc(CNC(=O)c2cc(-c3c[nH]c4ccc(Br)cc34)nc3ccccc23)cc1 [Example 283]
MIC [1]: < 7 µg/mL | MIC [2]: < 7 µg/mL | MIC [3]: < 7 µg/mL

NCCNC(=O)c1cc(-c2c[nH]c3ccc(Br)cc23)nc2ccc(Br)cc12 [Example 285]
MIC [1]: < 7 µg/mL | MIC [2]: < 7 µg/mL | MIC [3]: < 7 µg/mL

Clc1ccc2nc(-c3c[nH]c4ccc(Cl)cc34)ccc2c1 [Example 287]
MIC [1]: < 7 µg/mL | MIC [2]: > 25 µg/mL | MIC [3]: < 7 µg/mL

Fc1ccc2c(-c3ccc4cc(Cl)ccc4n3)c[nH]c2c1 [Example 288]
MIC [1]: < 7 µg/mL | MIC [2]: < 7 µg/mL | MIC [3]: < 7 µg/mL

Clc1ccc2nc(-c3c[nH]c4ccc(OCc5ccccc5)cc34)ccc2c1 [Example 289]
MIC [1]: < 7 µg/mL | MIC [2]: > 25 µg/mL | MIC [3]: < 7 µg/mL

COc1ccc2[nH]cc(-c3ccc4cc(Cl)ccc4n3)c2c1 [Example 290]
MIC [1]: > 25 µg/mL | MIC [2]: > 25 µg/mL | MIC [3]: > 25 µg/mL

Cc1cccc2c(-c3ccc4cc(Cl)ccc4n3)c[nH]c12 [Example 291]
MIC [1]: > 25 µg/mL | MIC [2]: > 25 µg/mL | MIC [3]: > 25 µg/mL

N#Cc1ccc2[nH]cc(-c3ccc4cc(Cl)ccc4n3)c2c1 [Example 292]
MIC MRSA [1]: > 25 µg/mL | MIC VREF [2]: >25 µg/mL | MIC S. pneu [3]: > 25 µg/mL

NCCNC(=O)c1cc(-c2c[nH]c3ccc(Br)cc23)nc2cc(Cl)c(I)cc12 [Example 294]
MIC [1]: < 7 µg/mL | MIC [2]: < 7 µg/mL | MIC [3]: < 7 µg/mL

NCCNC(=O)c1cc(-c2c[nH]c3ccc(Br)cc23)nc2cc(Cl)cc(Cl)c12 [Example 295]
MIC [1]: < 7 µg/mL | MIC [2]: < 7 µg/mL | MIC [3]: < 7 µg/mL

O=C(O)c1cc(-c2c[nH]c3ccc(Br)cc23)nc2cc(F)cc(Cl)c12 [Example 297]
MIC [1]: < 25 µg/mL | MIC [2]: < 25 µg/mL | MIC [3]: < 25 µg/mL

NCC1CCCC(CNC(=O)c2cc(-c3c[nH]c4ccc(Br)cc34)nc3cc(F)ccc23)C1 (stereo not drawn) [Example 298]
MIC MRSA [1]: < 7 µg/mL | MIC VREF [2]: <7 µg/mL | MIC [3]: < 7 µg/mL

NCc1ccc(CNC(=O)c2cc(-c3c[nH]c4ccc(Br)cc34)nc3cc(C#CCNCCc4ccc(Cl)cc4)ccc23)cc1 [Example 300]
MIC [1]: < 7 µg/mL | MIC [2]: < 7 µg/mL | MIC [3]: < 25 µg/mL

NCc1ccc(CNC(=O)c2cc(-c3c[nH]c4ccc(Br)cc34)nc3c(C#CCNCCc4ccc(Cl)cc4)cccc23)cc1 [Example 301]
MIC [1]: < 7 µg/mL | MIC [2]: < 25 µg/mL | MIC [3]: < 25 µg/mL

Brc1ccc2[nH]cc(-c3nc4ccc(I)cc4c4c3CCO4)c2c1 [Example 303]
MIC [1]: < 7 µg/mL | MIC [2]: > 25 µg/mL | MIC [3]: < 7 µg/mL

NCc1ccc(CNC(=O)c2cc(-c3c[nH]c4ccc(Br)cc34)nc3cc(C#CCN4CC=CCC4)ccc23)cc1 [Example 304]
MIC [1]: < 7 µg/mL | MIC [2]: < 7 µg/mL | MIC [3]: < 7 µg/mL

NCc1ccc(CNC(=O)c2cc(-c3c[nH]c4ccc(Br)cc34)nc3c(C#CCN4CC=CCC4)cccc23)cc1 [Example 305]
MIC [1]: < 7 µg/mL | MIC [2]: < 7 µg/mL | MIC [3]: < 7 µg/mL

NCc1ccc(CNC(=O)c2cc(-c3c[nH]c4ccc(Br)cc34)c3ccccc3n2)cc1 [Example 306]
MIC [1]: < 7 µg/mL | MIC [2]: < 7 µg/mL | MIC [3]: < 7 µg/mL

COC(=O)c1cc(-c2cn(C)c3ccc(Br)cc23)nc2cc(F)ccc12 [Example 309]
MIC [1]: > 25 µg/mL | MIC [2]: > 25 µg/mL | MIC [3]: > 25 µg/mL

Cn1cc(-c2cc(C(=O)O)c3ccc(F)cc3n2)c2cc(Br)ccc21 [Example 310]
MIC [1]: < 25 µg/mL | MIC [2]: > 25 µg/mL | MIC [3]: < 25 µg/mL

NCc1cccc(CNC(=O)c2cc(-c3cc4cc(Cl)ccc4[nH]3)nc3cc(I)ccc23)c1 [Example 311]
MIC [1]: > 25 µg/mL | MIC [2]: > 25 µg/mL | MIC [3]: > 25 µg/mL

NCCNC(=O)c1cc(-c2c[nH]c3ccc(Cl)cc23)nc2cc(Br)ccc12 [Example 312]
MIC [1]: < 7 µg/mL | MIC [2]: < 7 µg/mL | MIC [3]: < 7 µg/mL

NCCNC(=O)c1cc(-c2c[nH]c3ccc(Cl)cc23)nc2ccc(Br)cc12 [Example 313]
MIC [1]: < 7 µg/mL | MIC [2]: < 7 µg/mL | MIC [3]: < 7 µg/mL

NCCNC(=O)c1cc(-c2c[nH]c3ccc(Br)cc23)nc2c(Cl)cc(I)cc12 [Example 314]
MIC [1]: < 7 µg/mL | MIC [2]: < 7 µg/mL | MIC [3]: < 7 µg/mL

NCCNC(=O)c1cc(-c2c[nH]c3ccc(Br)cc23)nc2c(Br)cccc12 [Example 315]
MIC [1]: < 7 µg/mL | MIC [2]: < 7 µg/mL | MIC [3]: < 7 µg/mL

NCCNC(=O)c1cc(-c2c[nH]c3ccc(Br)cc23)nc2c(Cl)cccc12 [Example 318]
MIC [1]: < 7 µg/mL | MIC [2]: < 7 µg/mL | MIC [3]: < 7 µg/mL
